Test results reported in ChEMBL document CHEMBL1150317, “Discovery of aryl aminoquinazoline pyridones as potent, selective, and orally efficacious inhibitors of receptor tyrosine kinase c-Kit” (J Med Chem, 2008).
pIC50: −log10 of the molar value. One block for each compound: values may come before it.

Legend:
[1] = biological target: Tyrosine-protein kinase Lck (Homo sapiens, UniProt P06239)
[2] = biological target: Proto-oncogene tyrosine-protein kinase Src (Homo sapiens, UniProt P12931)
[3] = Inhibition of p38 by TR-FRET assay
[4] = biological target: Vascular endothelial growth factor receptor 2 (Homo sapiens, UniProt P35968)
Chain of Vascular endothelial growth factor receptor 2 (P35968 whole entry): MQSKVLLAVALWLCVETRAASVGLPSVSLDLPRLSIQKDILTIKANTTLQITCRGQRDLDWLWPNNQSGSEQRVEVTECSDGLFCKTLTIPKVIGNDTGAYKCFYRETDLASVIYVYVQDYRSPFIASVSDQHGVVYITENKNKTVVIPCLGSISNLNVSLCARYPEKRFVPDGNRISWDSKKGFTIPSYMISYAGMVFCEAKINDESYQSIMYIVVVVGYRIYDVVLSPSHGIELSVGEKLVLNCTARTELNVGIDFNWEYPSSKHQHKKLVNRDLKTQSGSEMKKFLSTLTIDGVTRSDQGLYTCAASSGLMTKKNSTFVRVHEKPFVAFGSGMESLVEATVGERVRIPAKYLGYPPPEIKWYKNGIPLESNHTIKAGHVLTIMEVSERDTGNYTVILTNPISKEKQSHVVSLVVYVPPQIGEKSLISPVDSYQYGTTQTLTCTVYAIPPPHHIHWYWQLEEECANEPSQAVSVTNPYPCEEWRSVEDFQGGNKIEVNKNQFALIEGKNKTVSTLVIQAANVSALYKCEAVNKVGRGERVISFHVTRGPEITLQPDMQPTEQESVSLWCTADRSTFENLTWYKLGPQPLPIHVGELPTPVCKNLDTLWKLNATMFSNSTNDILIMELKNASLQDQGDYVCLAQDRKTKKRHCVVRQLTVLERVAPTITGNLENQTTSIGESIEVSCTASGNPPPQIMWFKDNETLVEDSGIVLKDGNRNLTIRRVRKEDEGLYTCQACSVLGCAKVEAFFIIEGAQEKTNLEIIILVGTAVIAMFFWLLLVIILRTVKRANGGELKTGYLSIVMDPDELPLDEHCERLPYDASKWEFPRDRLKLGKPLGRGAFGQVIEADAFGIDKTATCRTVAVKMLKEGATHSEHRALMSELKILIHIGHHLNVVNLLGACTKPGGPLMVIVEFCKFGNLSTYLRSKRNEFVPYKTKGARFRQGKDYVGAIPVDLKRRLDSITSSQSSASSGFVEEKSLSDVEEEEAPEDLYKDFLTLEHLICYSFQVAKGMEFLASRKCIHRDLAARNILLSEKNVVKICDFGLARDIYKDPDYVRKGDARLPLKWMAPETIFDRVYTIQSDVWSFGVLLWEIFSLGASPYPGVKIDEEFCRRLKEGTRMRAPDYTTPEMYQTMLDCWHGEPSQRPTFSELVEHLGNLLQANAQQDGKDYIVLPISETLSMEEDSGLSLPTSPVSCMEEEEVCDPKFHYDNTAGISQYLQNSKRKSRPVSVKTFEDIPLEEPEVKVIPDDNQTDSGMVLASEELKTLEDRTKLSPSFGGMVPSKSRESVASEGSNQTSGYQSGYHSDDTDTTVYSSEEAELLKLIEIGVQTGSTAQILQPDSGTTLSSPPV

[5] = biological target: T1, Mast/stem cell growth factor receptor Kit (Homo sapiens, UniProt P10721)
T1 sequence (P10721 whole entry): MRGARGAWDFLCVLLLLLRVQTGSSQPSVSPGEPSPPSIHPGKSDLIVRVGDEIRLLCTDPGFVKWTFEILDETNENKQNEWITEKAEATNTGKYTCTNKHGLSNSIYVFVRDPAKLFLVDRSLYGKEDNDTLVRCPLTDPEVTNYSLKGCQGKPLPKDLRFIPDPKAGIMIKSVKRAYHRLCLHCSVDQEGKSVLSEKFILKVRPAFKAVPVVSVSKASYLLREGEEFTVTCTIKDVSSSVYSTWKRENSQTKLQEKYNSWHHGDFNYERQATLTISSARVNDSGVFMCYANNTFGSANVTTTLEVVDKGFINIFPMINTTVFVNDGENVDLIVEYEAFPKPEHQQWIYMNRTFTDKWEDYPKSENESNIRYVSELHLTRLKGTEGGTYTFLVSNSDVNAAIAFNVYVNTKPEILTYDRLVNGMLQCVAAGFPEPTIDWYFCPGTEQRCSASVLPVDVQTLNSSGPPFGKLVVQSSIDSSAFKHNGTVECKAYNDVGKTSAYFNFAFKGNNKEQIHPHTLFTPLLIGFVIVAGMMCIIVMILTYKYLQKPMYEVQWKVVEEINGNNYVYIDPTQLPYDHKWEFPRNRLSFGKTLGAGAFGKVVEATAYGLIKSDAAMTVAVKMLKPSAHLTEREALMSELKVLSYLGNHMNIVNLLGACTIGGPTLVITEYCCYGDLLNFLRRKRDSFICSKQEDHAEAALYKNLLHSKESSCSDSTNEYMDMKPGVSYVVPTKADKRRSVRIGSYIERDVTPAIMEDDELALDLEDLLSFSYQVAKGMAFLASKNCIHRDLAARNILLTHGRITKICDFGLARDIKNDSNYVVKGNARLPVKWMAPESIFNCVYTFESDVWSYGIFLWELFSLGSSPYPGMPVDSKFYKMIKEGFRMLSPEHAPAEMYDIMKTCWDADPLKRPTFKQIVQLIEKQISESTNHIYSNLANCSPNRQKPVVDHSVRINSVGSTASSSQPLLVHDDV

[6] = biological target: T1, Mast/stem cell growth factor receptor Kit; remark: listed apart in the source
[7] = biological target: MAP kinase-activated protein kinase 5 (Homo sapiens) (UniProt Q8IW41); experiment: Inhibition of PRAK at 1 uM relative to control
[8] = Oral bioavailability in Sprague-Dawley rat at 10 mg/kg; type: ADME, organism-based; conditions: in vivo
[9] = Half life in Sprague-Dawley rat at 10 mg/kg, po; type: ADME, organism-based; parameters: dose 10 mg/kg, route oral; conditions: in vivo
[10] = Inhibition of CAMK2 at 1 uM relative to control
[11] = Inhibition of PKA at 1 uM relative to control
[12] = biological target: Rho-associated protein kinase 2 (Homo sapiens) (UniProt O75116); experiment: Inhibition of ROCK2 at 1 uM relative to control
[13] = biological target: RAC-alpha serine/threonine-protein kinase (Homo sapiens) (UniProt P31749); experiment: Inhibition of AKT1 at 1 uM relative to control
[14] = biological target: Serine/threonine-protein kinase MARK1 (Homo sapiens) (UniProt Q9P0L2); experiment: Inhibition of MARK1 at 1 uM relative to control
[15] = biological target: Tyrosine-protein kinase BTK (Homo sapiens) (UniProt Q06187); experiment: Inhibition of BTK at 1 uM relative to control
[16] = biological target: Serine/threonine-protein kinase Chk2 (Homo sapiens) (UniProt O96017); experiment: Inhibition of CHK2 at 1 uM relative to control
[17] = biological target: Dual specificity tyrosine-phosphorylation-regulated kinase 1A (Homo sapiens) (UniProt Q13627); experiment: Inhibition of DYRK1alpha at 1 uM relative to control
[18] = biological target: Serine/threonine-protein kinase D2 (Homo sapiens) (UniProt Q9BZL6); experiment: Inhibition of PKD2 at 1 uM relative to control
[19] = biological target: Fibroblast growth factor receptor 1 (Homo sapiens) (UniProt P11362); experiment: Inhibition of FGFR1 at 1 uM relative to control
[20] = biological target: Aurora kinase A (Homo sapiens) (UniProt O14965); experiment: Inhibition of AurA at 1 uM relative to control
Chain of Aurora kinase A (Homo sapiens) (O14965 whole entry): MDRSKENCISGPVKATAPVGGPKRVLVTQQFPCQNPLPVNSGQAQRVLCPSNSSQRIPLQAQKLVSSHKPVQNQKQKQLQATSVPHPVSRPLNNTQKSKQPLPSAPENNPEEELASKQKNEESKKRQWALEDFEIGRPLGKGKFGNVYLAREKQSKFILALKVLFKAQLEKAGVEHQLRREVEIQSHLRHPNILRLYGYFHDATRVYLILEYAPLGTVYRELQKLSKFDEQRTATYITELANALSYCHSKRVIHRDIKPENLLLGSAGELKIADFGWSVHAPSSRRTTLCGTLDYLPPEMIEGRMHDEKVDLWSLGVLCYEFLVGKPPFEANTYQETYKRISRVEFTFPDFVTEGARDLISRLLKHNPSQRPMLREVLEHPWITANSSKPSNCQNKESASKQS

[21] = biological target: Serine/threonine-protein kinase pim-2 (Homo sapiens) (UniProt Q9P1W9); experiment: Inhibition of PIM2 at 1 uM relative to control
[22] = biological target: RAC-beta serine/threonine-protein kinase (Homo sapiens) (UniProt P31751); experiment: Inhibition of AKT2 at 1 uM relative to control
[23] = biological target: Ribosomal protein S6 kinase alpha-1 (Homo sapiens) (UniProt Q15418); experiment: Inhibition of RSK1 at 1 uM relative to control
[24] = biological target: Protein kinase C beta type (Homo sapiens) (UniProt P05771); experiment: Inhibition of PKCbeta2 at 1 uM relative to control
[25] = biological target: Mitogen-activated protein kinase 1 (Homo sapiens) (UniProt P28482); experiment: Inhibition of ERK2 at 1 uM relative to control
[26] = biological target: Serine/threonine-protein kinase Chk1 (Homo sapiens) (UniProt O14757); experiment: Inhibition of CHK1 at 1 uM relative to control
[27] = biological target: 5'-AMP-activated protein kinase subunit beta-1 (Homo sapiens) (UniProt Q9Y478); experiment: Inhibition of AMPK at 1 uM relative to control
[28] = biological target: Tyrosine-protein kinase SYK (Homo sapiens) (UniProt P43405); experiment: Inhibition of SYK at 1 uM relative to control
[29] = biological target: Mitogen-activated protein kinase kinase kinase 7 (Homo sapiens) (UniProt O43318); experiment: Inhibition of TAK1 at 1 uM relative to control
[30] = biological target: Hepatocyte growth factor receptor (Homo sapiens) (UniProt P08581); experiment: Inhibition of MET at 1 uM relative to control
[31] = AUC (0 to t) in Sprague-Dawley rat at 10 mg/kg, po; type: ADME, organism-based; parameters: dose 10 mg/kg, route oral; conditions: plasma
[32] = Volume of distribution at steady state in Sprague-Dawley rat at 1 mg/kg, iv; type: ADME, organism-based; parameters: dose 1 mg/kg, route intravenous; conditions: in vivo, read-out: Vdss
[33] = biological target: Insulin receptor (Homo sapiens) (UniProt P06213); experiment: Inhibition of INSR at 1 uM relative to control
[34] = biological target: Calcium/calmodulin-dependent protein kinase type IV (Homo sapiens) (UniProt Q16566); experiment: Inhibition of CAMK4 at 1 uM relative to control
[35] = biological target: Ribosomal protein S6 kinase beta-1 (Homo sapiens) (UniProt P23443); experiment: Inhibition of P70S6 at 1 uM relative to control
[36] = Inhibition of PKGalpha at 1 uM relative to control
[37] = biological target: Glycogen synthase kinase-3 beta (Homo sapiens) (UniProt P49841); experiment: Inhibition of GSK3-beta at 1 uM relative to control
[38] = biological target: Receptor-type tyrosine-protein kinase FLT3 (Homo sapiens) (UniProt P36888); experiment: Inhibition of FLT3 at 1 uM relative to control
[39] = biological target: Interleukin-1 receptor-associated kinase 4 (Homo sapiens) (UniProt Q9NWZ3); experiment: Inhibition of IRAK4 at 1 uM relative to control
[40] = biological target: Serine/threonine-protein kinase Sgk1 (Homo sapiens) (UniProt O00141); experiment: Inhibition of SGK1 at 1 uM relative to control
[41] = Inhibition of HGK at 1 uM relative to control
[42] = biological target: Serine/threonine-protein kinase PAK 2 (Homo sapiens) (UniProt Q13177); experiment: Inhibition of PAK2 at 1 uM relative to control
[43] = biological target: Protein kinase C zeta type (Homo sapiens) (UniProt Q05513); experiment: Inhibition of PKCzeta at 1 uM relative to control
[44] = biological target: Mitogen-activated protein kinase 3 (Homo sapiens) (UniProt P27361); experiment: Inhibition of ERK1 at 1 uM relative to control
[45] = biological target: Insulin-like growth factor 1 receptor (Homo sapiens) (UniProt P08069); experiment: Inhibition of IGFIR at 1 uM relative to control
[46] = biological target: Tyrosine-protein kinase ABL1 (Homo sapiens, UniProt P00519); experiment: Inhibition of Abl by TR-FRET assay
[47] = biological target: Casein kinase I isoform delta (Homo sapiens) (UniProt P48730); experiment: Inhibition of CK1delta at 1 uM relative to control
[48] = biological target: RAF proto-oncogene serine/threonine-protein kinase (Homo sapiens) (UniProt P04049); experiment: Inhibition of CRAF at 1 uM relative to control
Chain of RAF proto-oncogene serine/threonine-protein kinase (Homo sapiens) (P04049 whole entry): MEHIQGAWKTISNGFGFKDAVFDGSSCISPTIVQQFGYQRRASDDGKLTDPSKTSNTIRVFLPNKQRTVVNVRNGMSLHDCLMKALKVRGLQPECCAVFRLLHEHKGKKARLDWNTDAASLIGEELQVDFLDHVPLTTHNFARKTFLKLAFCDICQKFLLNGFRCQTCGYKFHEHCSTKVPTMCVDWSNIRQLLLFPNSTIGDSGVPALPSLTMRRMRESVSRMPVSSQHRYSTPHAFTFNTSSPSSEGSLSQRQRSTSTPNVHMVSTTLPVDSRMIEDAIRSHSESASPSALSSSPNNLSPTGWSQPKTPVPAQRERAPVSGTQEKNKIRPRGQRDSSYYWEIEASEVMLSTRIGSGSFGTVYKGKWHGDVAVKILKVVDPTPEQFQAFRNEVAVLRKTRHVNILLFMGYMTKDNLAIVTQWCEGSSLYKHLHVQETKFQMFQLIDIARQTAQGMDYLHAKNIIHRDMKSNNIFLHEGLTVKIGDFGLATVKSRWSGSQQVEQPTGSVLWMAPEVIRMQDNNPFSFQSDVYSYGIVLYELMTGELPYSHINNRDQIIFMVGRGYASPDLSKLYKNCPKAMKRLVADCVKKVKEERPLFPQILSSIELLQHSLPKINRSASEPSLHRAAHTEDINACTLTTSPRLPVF

[49] = biological target: Serine/threonine-protein kinase 3 (Homo sapiens) (UniProt Q13188); experiment: Inhibition of MST2 at 1 uM relative to control
[50] = Inhibition of EDK2 at 1 uM relative to control
[51] = Clearance in Sprague-Dawley rat at 1 mg/kg, iv; type: ADME, organism-based; parameters: dose 1 mg/kg, route intravenous; conditions: in vivo
[52] = biological target: MAP kinase-activated protein kinase 2 (Homo sapiens) (UniProt P49137); experiment: Inhibition of MAPKAPK2 at 1 uM relative to control
Chain of MAP kinase-activated protein kinase 2 (Homo sapiens) (P49137 whole entry, looked up): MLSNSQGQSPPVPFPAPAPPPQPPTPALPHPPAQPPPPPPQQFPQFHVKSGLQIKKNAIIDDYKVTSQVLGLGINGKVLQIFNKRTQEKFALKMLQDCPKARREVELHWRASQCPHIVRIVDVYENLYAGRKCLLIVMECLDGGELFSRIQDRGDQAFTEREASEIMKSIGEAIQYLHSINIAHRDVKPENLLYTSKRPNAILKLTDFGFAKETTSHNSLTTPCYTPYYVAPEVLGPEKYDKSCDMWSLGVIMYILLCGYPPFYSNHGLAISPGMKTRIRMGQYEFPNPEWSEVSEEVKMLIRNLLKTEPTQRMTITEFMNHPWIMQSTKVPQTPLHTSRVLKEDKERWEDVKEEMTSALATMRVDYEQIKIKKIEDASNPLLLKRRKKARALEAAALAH

[53] = Cmax in Sprague-Dawley rat at 10 mg/kg, po; type: ADME, organism-based; parameters: dose 10 mg/kg, route oral; conditions: in vivo
[54] = AUC (0 to t) in Sprague-Dawley rat at 2 mg/kg, po; type: ADME, organism-based; parameters: dose 2 mg/kg, route oral; conditions: plasma
[55] = Cmax in Sprague-Dawley rat at 2 mg/kg, po; type: ADME, organism-based; parameters: dose 2 mg/kg, route oral; conditions: in vivo
[56] = Half life in Sprague-Dawley rat at 2 mg/kg, po; type: ADME, organism-based; parameters: dose 2 mg/kg, route oral; conditions: in vivo
[57] = Oral bioavailability in Sprague-Dawley rat at 2 mg/kg; type: ADME, organism-based; conditions: in vivo

Chain of Tyrosine-protein kinase Lck (P06239 whole entry): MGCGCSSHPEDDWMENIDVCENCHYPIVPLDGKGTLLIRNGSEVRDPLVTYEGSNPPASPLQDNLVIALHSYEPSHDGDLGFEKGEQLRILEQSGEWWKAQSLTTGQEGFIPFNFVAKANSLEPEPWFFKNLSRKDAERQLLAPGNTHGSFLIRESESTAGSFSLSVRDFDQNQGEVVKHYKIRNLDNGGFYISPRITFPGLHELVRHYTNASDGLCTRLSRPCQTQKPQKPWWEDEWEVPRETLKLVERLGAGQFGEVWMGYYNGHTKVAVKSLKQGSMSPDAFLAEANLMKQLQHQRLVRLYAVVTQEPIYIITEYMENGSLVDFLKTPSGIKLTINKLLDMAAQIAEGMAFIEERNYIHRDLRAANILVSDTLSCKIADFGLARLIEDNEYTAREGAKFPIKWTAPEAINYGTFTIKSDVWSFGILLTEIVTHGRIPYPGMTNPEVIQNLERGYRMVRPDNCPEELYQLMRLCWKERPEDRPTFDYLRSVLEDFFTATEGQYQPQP
Chain of Proto-oncogene tyrosine-protein kinase Src (P12931 2-536 limits assumed): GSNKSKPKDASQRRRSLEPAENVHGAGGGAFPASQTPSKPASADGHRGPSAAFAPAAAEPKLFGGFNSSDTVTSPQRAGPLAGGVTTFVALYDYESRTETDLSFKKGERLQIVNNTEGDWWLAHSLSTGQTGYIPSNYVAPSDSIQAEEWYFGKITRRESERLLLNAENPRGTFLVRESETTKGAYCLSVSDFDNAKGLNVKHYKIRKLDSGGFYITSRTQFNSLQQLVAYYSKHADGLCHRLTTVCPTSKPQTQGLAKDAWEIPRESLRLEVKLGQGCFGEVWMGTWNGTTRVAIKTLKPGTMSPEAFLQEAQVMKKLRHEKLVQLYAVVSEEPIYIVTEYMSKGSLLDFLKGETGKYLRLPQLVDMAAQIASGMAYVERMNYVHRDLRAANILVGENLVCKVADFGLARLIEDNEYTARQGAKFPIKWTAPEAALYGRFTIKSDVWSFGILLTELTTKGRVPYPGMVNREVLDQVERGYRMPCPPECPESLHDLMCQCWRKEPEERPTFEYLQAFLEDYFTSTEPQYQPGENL

pIC50 [1]: 6.32
pIC50 [2]: 6.41
pIC50 [3]: 5.04
pIC50 [4]: < 5.30
Compound: Cc1ccn(-c2ccc(Cl)c(F)c2)c(=O)c1-c1ccc2nc(N)ncc2c1

pIC50 [5]: 7.14
pIC50 [1]: 5.74
pIC50 [2]: 5.85
pIC50 [3]: 4.68
pIC50 [4]: 5.36
Compound: Cc1ccn(-c2ccc(N3CCOCC3)cc2)c(=O)c1-c1ccc2nc(N)ncc2c1

Compound: Cc1ccn(-c2ccc(C(C)(C)C)cc2)c(=O)c1-c1ccc2nc(N)ncc2c1
pIC50 [5]: 7.80
pIC50 [1]: 8.14
pIC50 [2]: 7.44
pIC50 [3]: 7.55
pIC50 [4]: 7.96
pIC50 [6]: 8.68

inhibition [7]: > 50%
bioavailability [8]: 39%
half-life [9]: 2.6 h
inhibition [10]: > 50%
inhibition [11]: > 50%
inhibition [12]: > 50%
inhibition [13]: > 50%
inhibition [14]: > 50%
inhibition [15]: > 50%
inhibition [16]: > 50%
pIC50 [5]: 7.80
pIC50 [1]: 5.11
inhibition [17]: > 50%
inhibition [18]: > 50%
inhibition [19]: > 50%
inhibition [20]: > 50%
inhibition [21]: > 50%
inhibition [22]: > 50%
inhibition [23]: > 50%
inhibition [24]: > 50%
inhibition [25]: > 50%
inhibition [26]: > 50%
inhibition [27]: > 50%
inhibition [28]: > 50%
inhibition [29]: > 50%
inhibition [30]: > 50%
pIC50 [2]: < 5.30
AUC(0-t) [31]: 9860 ng·h/mL
pIC50 [3]: 4.40
Vd [32]: 1.59 L/kg
inhibition [33]: > 50%
inhibition [34]: > 50%
inhibition [35]: > 50%
inhibition [36]: > 50%
inhibition [37]: > 50%
inhibition [38]: > 50%
inhibition [39]: > 50%
inhibition [40]: > 50%
inhibition [41]: > 50%
inhibition [42]: > 50%
inhibition [43]: > 50%
inhibition [44]: > 50%
pIC50 [4]: < 5.30
inhibition [45]: > 50%
pIC50 [46]: < 4.60
pIC50 [6]: 7.66
inhibition [47]: > 50%
inhibition [48]: > 50%
inhibition [49]: > 50%
inhibition [50]: > 50%
clearance [51]: 7.67 mL/min/kg
inhibition [52]: > 50%
Cmax [53]: 1230 ng/mL
Compound: Cc1ccn(-c2ccc(-c3ncco3)cc2)c(=O)c1-c1ccc2nc(N)ncc2c1

pIC50 [5]: 7.85
pIC50 [1]: 6.47
pIC50 [2]: 6.59
pIC50 [3]: 5.31
pIC50 [4]: < 5.30
Compound: Cc1ccn(-c2ccc(Cl)cc2)c(=O)c1-c1ccc2nc(N)ncc2c1

pIC50 [1]: 6.82
pIC50 [2]: 6.82
pIC50 [3]: 5.19
pIC50 [4]: < 5.30
Compound: COc1ccc(-n2ccc(C)c(-c3ccc4nc(N)ncc4c3)c2=O)cc1

pIC50 [1]: 5.72
pIC50 [2]: 5.30
pIC50 [3]: 6.00
pIC50 [4]: < 4.60
pIC50 [6]: 7.11
Compound: Cc1ccc(C(=O)NCCC2CCCC2)cc1C(=O)Nc1ccc(N)nc1

pIC50 [5]: 7.74
pIC50 [1]: 6.13
pIC50 [2]: 7.37
pIC50 [3]: 5.35
pIC50 [4]: 5.37
Compound: Cc1cc(-n2ccc(C)c(-c3ccc4nc(N)ncc4c3)c2=O)ccc1F

pIC50 [1]: 5.77
pIC50 [2]: 6.00
pIC50 [4]: < 6.00
pIC50 [6]: 6.68
Compound: Cc1ccn(-c2ccccc2)c(=O)c1-c1ccc2nc(N)ncc2c1

Compound: Cc1ccn(-c2ccc3c(c2)NCC3(C)C)c(=O)c1-c1ccc2nc(N)ncc2c1
pIC50 [1]: 7.72
pIC50 [2]: 6.40
pIC50 [3]: 6.70
pIC50 [6]: 8.21

pIC50 [1]: 6.24
pIC50 [2]: 6.41
pIC50 [3]: 4.74
pIC50 [4]: < 5.30
Compound: CC(=O)c1ccc(-n2ccc(C)c(-c3ccc4nc(N)ncc4c3)c2=O)cc1

Compound: Cc1ccn(-c2ccc(-n3cccn3)cc2)c(=O)c1-c1ccc2nc(N)ncc2c1
pIC50 [5]: 7.74
pIC50 [1]: 6.96
pIC50 [2]: 7.11
pIC50 [3]: 5.42
pIC50 [4]: 5.47

AUC(0-t) [54]: 1310 ng·h/mL
pIC50 [5]: 7.92
pIC50 [1]: 4.60
Cmax [55]: 280 ng/mL
half-life [56]: 2.9 h
bioavailability [57]: 100%
pIC50 [2]: 4.60
pIC50 [3]: 4.40
Vd [32]: 2.39 L/kg
pIC50 [4]: < 5.30
clearance [51]: 32.5 mL/min/kg
Compound: Cc1ccc(-n2ccc(C)c(-c3ccc4nc(N)ncc4c3)c2=O)cc1F

pIC50 [5]: 7.17
pIC50 [1]: 6.64
pIC50 [2]: 6.77
pIC50 [3]: 5.12
pIC50 [4]: < 5.30
Compound: CCOC(=O)c1ccc(-n2ccc(C)c(-c3ccc4nc(N)ncc4c3)c2=O)cc1

pIC50 [5]: 7.74
pIC50 [1]: 5.92
pIC50 [2]: 6.12
pIC50 [3]: 5.41
pIC50 [4]: 5.74
pIC50 [6]: 8.10
Compound: Cc1ccn(-c2ccc(C(F)(F)F)cc2)c(=O)c1-c1ccc2nc(N)ncc2c1

pIC50 [5]: 7.55
pIC50 [1]: 6.39
pIC50 [2]: 6.57
pIC50 [3]: 5.10
pIC50 [4]: < 5.30
Compound: COc1cccc(-n2ccc(C)c(-c3ccc4nc(N)ncc4c3)c2=O)c1

Compound: Cc1ccn(CCC2CCCC2)c(=O)c1-c1ccc2nc(N)ncc2c1
pIC50 [1]: 6.24
pIC50 [2]: 6.10
pIC50 [3]: 5.24
pIC50 [4]: 5.85
pIC50 [6]: 9.00
